What was measured:
[1] = target: T1, Human Rheumatoid Synovial Collagenase (Homo sapiens, UniProt P03956); assay: Collagenase inhibition (procedure of Cawston and Barrett, acetyl 14C collagen); format: biochemical; conditions: 37° C., 16 hours, native acetyl 14C collagen, Tris HCl-CaCl2 pH 7.6
T1 construct: from tissue
T1 sequence (P03956 100-469): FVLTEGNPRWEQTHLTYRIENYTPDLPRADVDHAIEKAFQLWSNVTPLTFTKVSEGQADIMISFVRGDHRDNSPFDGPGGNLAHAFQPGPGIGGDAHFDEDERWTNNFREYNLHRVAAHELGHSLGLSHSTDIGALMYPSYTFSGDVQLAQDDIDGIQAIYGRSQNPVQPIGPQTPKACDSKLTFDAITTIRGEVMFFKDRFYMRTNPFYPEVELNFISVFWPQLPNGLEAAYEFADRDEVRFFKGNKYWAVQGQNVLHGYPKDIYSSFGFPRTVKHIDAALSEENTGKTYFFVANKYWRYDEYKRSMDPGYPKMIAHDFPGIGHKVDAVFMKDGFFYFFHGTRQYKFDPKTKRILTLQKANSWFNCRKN
Procedure: This was determined following the procedure of Cawston and Barrett, Anal. Biochem., 99, 340-345 (1979) whereby the 1 mM of the inhibitor being tested or dilutions thereof are incubated at 37° C. for 16 hours with native collagen and collagenase (buffered with Tris HCl--CaCl2; pH 7.6). The collagen is acetyl ^14 C collagen. The samples are centrifuged to sediment undigested collagen and an aliquot of the radiactive supernatant removed for assay on a scintillation counter as a measure of hydrolysis. The collagenase activity in the presence of 1 mM inhibitor, or a dilution thereof, is compared to activity in a control devoid of inhibitor and the results reported as that inhibitor concentration effecting 50% inhibition of the collagenase.

[2] = test system: rat model of inflammatory arthritis; assay: Rat model of inflammatory arthritis induced by Type II collagen (Trentham et al.); format: in vivo; conditions: prednisolone 0.625 mg/kg b.i.d.
Procedure: The therapeutic effectivness is assessed in the rat model of inflammatory arthritis described by Trentham et al. (1977). In this model, the arthritis, induced by an intradermal injection of Type II collagen, generally develops in both hind paws and the progression and severity of the lesion are monitored by physical measurements of the malleolar width and ankle extensibility.
The compound of Example II in the present specification was administered by intraperitoneal injections at 100 mg/kg twice daily for 21 days commencing seven days after the injection of the disease.
Drugs (Example 11 or prednisolone) and vehicle were administered to groups of 10 rats each. Physical measurements on the rat paws were made weekly for four weeks and consisted of (a) the distance between the medial and lateral malleolus (malleolar width) and (b) the ankle extension which was measured by applying a standard force to th rat paw and measuring the angle formed between the flexor surface of the foot and the tibia. Evidence of a therapeutic effect was denoted by a significant reduction in malleolar width and a significant increase in ankle extension. Both measurements were carried out in apparatus designed for the purpose. Area-under-the-curve data from these time course experiments was examinaed by non-parametic statistical analysis. The prednisolone standard was given at a dose of 0.625 mg/kg b.i.d. Prednisolone was chosen as a standard since steroids are known to be effective both clinically in Rheumatoid Arthritis and in animal models of arthritis.

[3] = arthritic rats' paws, Example 11 100 mg/kg i.p. twice daily for 21 days, area-under-the-curve data
[4] = mean of experiments 1-3, Example 11 100 mg/kg i.p. twice daily

Row | SMILES | IC50 [1] | Ankle extension, percentage change from control, experiment number 1 [2, 3] | Ankle extension, percentage change from control, experiment number 2 [2, 3] | Ankle extension, percentage change from control, experiment number 3 [2, 3] | Malleolar width, percentage change from control, experiment number 1 [2, 3] | Malleolar width, percentage change from control, experiment number 2 [2, 3] | Malleolar width, percentage change from control, experiment number 3 [2, 3] | Ankle extension, percentage change from control, mean [2, 4] | Malleolar width, percentage change from control, mean [2, 4]
1 | CNC(=O)[C@H](Cc1ccc(OC)cc1)NC(=O)[C@H](CC(C)C)N[C@H](CCNC(=O)OCc1ccccc1)C(=O)O [Example 11, N-[3-N-(Benzyloxycarbonyl)amino-1-(R)-carboxypropyl]-L-leucyl-O-methyl-L-tyrosine N-Methylamide] | 0.8 µM | 66% | 39% | 39% | 65% | 43% | 41% | 48% | –
2 | C[C@]12C=CC(=O)C=C1CC[C@@H]1[C@@H]2[C@@H](O)C[C@@]2(C)[C@H]1CC[C@]2(O)C(=O)CO [Prednisolone, prednisolone, reference compound] | – | – | 96% | 95% | 98% | 96% | 97% | 97% | 97%

Source: patent US4568666A, “Carboxylalkyl peptide derivatives” (G. D. Searle & Co., priority 1984, dated 1986)
